{"source": "patent US20240299406A1", "about": "“NEURONAL NICOTINIC ACETYLCHOLINE RECEPTOR PARTIAL AGONISTS AS THERAPEUTICS FOR CHRONIC TINNITUS” (Board of Trustees of Southern Illinois University, priority 2019, published 2024)", "key": {"[1]": {"experiment": "non-specific drug effects (cage observation, session lever pressing)", "format": "in vivo, rats", "method": "FIG. 10 illustrates the data for a non-specific effect. The non-specific effects appeared 10 to 15 min after treatment but were not present 1 hr after treatment, i.e., at the beginning of the test period.\n(§1) Sterile normal saline was considered a pharmaceutically acceptable carrier, but other pharmaceutically acceptable carriers may also be used as a substitute. All animals, unexposed controls and sound-exposed, were drug treated and tested in parallel. […] Dose levels of 0.1, 0.5, and 1 mg/kg were tested for therapeutic effect, over a minimum of 3 consecutive days for each dose level. Washout periods of 1 to 5 weeks (5 test sessions per week) intervened between drug-testing, as required to recover pre-drug baseline tinnitus performance.\nAt 1 mg/kg. […] Within 10 min of drug treatment all animals assumed a prone resting position in their home cage, which lasted about 10 min. Afterward animals resumed normal cage activity, e.g., moving about, grooming, sniffing. […] This behavior was not observed in washout or saline (vehicle) sessions, nor was it observed in the remaining 15 animals. Mild sedation was indicated by a decrease in total bar pressing at 1.0 mg/kg (FIG. 10)."}, "α3β4 nAChRs [2]": {"target": "T1, α3β4 nAChRs (Homo sapiens, UniProt P30926+P32297)", "T1 sequence (P32297 32-505)": "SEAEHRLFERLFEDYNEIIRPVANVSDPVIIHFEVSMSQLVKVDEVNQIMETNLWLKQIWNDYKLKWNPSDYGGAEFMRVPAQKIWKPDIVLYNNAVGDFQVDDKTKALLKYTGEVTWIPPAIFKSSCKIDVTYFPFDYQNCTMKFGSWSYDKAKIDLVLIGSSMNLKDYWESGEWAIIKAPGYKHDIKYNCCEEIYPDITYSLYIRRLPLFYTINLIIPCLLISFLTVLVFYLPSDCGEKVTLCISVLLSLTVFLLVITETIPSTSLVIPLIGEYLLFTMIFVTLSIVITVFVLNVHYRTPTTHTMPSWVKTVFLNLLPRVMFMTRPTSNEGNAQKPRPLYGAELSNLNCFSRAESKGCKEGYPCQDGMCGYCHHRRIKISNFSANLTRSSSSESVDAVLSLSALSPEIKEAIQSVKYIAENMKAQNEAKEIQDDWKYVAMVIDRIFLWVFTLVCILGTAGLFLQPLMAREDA", "T1 sequence (P30926 22-498)": "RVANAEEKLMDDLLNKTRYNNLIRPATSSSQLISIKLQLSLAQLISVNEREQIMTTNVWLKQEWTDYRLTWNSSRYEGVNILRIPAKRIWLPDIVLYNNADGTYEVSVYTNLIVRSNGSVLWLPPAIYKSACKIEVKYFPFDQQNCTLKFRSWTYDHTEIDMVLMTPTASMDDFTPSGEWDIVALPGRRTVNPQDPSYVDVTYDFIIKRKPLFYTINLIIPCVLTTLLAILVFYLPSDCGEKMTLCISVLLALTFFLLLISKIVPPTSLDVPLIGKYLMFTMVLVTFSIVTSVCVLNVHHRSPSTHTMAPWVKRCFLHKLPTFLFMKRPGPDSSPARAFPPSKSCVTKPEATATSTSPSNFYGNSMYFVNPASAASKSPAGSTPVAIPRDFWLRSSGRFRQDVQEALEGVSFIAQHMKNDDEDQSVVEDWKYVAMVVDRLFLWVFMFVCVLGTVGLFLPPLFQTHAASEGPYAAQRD", "details": "cited from earlier work"}, "α7 nAChRs [3]": {"target": "T2, α7 nAChRs (Homo sapiens, UniProt P36544)", "T2 sequence (P36544 23-502)": "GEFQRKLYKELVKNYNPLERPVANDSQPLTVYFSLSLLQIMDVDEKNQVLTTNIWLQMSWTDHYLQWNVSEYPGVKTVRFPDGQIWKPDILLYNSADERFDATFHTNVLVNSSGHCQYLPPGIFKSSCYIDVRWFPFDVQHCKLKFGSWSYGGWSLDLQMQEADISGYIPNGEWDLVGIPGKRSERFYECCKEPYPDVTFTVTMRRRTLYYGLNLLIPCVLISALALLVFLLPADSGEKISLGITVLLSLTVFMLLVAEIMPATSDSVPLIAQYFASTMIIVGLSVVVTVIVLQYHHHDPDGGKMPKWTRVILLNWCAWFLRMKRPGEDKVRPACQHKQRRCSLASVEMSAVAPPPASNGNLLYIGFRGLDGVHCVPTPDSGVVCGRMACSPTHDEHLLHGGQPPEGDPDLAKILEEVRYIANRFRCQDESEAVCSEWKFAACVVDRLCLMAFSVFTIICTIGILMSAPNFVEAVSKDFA", "details": "cited from earlier work"}, "α4β2 nAChRs": {"target": "α4β2 nAChRs (Homo sapiens, UniProt P17787+P43681)", "sequence (P43681 29-627 limits assumed)": "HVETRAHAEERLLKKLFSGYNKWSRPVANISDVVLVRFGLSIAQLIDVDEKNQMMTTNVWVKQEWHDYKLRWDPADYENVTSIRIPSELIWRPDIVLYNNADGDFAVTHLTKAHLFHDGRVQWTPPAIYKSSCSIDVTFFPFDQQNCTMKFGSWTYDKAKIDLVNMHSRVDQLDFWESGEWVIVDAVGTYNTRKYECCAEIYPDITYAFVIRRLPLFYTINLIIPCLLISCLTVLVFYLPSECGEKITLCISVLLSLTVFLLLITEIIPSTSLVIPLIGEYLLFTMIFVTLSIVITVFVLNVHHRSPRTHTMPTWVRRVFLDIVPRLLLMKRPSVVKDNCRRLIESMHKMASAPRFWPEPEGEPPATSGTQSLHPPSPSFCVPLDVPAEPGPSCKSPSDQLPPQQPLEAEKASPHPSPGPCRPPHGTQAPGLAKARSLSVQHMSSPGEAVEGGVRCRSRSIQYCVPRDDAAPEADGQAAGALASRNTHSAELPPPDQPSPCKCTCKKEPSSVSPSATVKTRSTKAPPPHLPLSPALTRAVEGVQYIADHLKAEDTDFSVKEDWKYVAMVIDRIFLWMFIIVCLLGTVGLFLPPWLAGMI", "sequence (P17787 26-502)": "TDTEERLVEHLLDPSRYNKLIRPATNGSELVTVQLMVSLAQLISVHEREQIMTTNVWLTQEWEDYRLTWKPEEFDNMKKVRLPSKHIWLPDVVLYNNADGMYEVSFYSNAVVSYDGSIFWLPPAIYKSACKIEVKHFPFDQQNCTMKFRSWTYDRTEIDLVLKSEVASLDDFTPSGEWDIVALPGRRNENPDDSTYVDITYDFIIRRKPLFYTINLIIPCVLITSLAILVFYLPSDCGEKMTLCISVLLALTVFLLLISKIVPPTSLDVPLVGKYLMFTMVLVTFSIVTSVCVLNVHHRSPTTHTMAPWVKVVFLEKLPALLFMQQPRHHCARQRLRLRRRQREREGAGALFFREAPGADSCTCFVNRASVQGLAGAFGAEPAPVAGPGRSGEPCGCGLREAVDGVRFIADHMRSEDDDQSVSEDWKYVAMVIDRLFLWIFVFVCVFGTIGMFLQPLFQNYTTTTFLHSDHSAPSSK", "details": "cited from earlier work; for affinity for β2-containing nAChRs: partial nAChR agonists"}, "[4]": {"system": "rats with behavioral evidence of tinnitus", "experiment": "operant conditioned-suppression behavioral test for tinnitus (suppression ratio, 20 kHz test series)", "format": "in vivo, Long Evans rats", "details": "for evidence of tinnitus: SC injection", "excerpt": "Unilaterally sound-exposed animals were used to study the effects of sazetidine on tinnitus. Experiments used an established behavioral psychoacoustic test to determine whether sazetidine could ameliorate tinnitus in subjects (rats) with behavioral evidence of tinnitus. Three months following sound-exposure, animals with tinnitus show consistent difficulty identifying silence. Sounds of varying intensity/levels were presented to sound-exposed (tinnitus) and unexposed (non-tinnitus control) subjects. The animals' behavior, quantified as a suppression ratio, indicated their level of tinnitus. Greater suppression, i.e., a decrease in lever pressing, indicates the presence of tinnitus.\nThe present study examined the potential therapeutic effect of sazetidine and varenicline to ameliorate tinnitus in rats with behavioral evidence of tinnitus. For two decades, an operant-behavior model has been used to investigate tinnitus pathology. In this model, animals are taught to attend closely to their auditory sensations using a conditioned suppression procedure: Animals lever press for food pellets in the presence of low-level background sounds, randomly punctuated by sound-off (silence) periods. Sound-off (silence) lever pressing earns food pellets but leads to a mild foot shock at the conclusion of the sound off presentation. The animals are therefore conditioned to stop lever pressing when the external sound is off, i.e., conditioned suppression. In this paradigm, the animals are conditioned to attend to their sound environment, and when tones of different frequencies and levels/intensities are substituted for some of the sound-off periods, the attendant behavior can be used to derive psychometric functions indicative of tinnitus.\nSixteen, 96-day old Long Evans rats (Envigo, Indianapolis, IN, USA) were anesthetized with a 1.7 percent isoflurane/02 mixture, placed in a head holder. A Fostex speaker (FT17H, Akashima, Japan) was attached to a 2 cm length of flexible tubing positioned at the entrance of the right ear canal. Eight randomly selected rats were unilaterally exposed once to band-limited noise for 1 hr, with a peak level of 120 dB (SPL) centered at 16 kHz, falling to ambient levels at 8 kHz and 24 kHz. During sound-exposure, the contralateral canal was obstructed by a canal-fitted plastic plug/tube from the contralateral speaker. Auditory brainstem responses (ABRs), which measure hearing, were obtained before and after exposure for pure tones at 8, 10, 12, 16, 20, 24, and 32 kHz, presented in 10 dB decrements between 95 and 5 dB (SPL re […]). Eight unexposed animals were similarly tested. Tinnitus testing began 3 months following sound-exposure and hearing-level determination.\nSazetidine A dihydrochloride (batch 2A/187725) was obtained in solid form, from Tocris Bioscience (Minneapolis, MN, USA). The drug was dissolved in sterile normal saline at a concentration of 2 mg/ml, or less, and administered as a subcutaneous injection (SC) 1 hour prior to behavioral testing.\nVarenicline, varenicline tartrate, was purchased from Santa Cruz Biotechnology, Inc. (Dallas, Texas, USA). The drug was dissolved in sterile normal saline at a concentration of 1 mg/ml, or less, and administered as a SC injection 1 hour prior to behavioral testing.\nas §1\nPrior to the start of drug testing, each group was optimized to five rats per group. […]"}, "α3β4 nAChRs [5]": {"target": "T1, α3β4 nAChRs", "details": "at lower affinity; cited from earlier work"}, "α7 nAChRs [6]": {"target": "T2, α7 nAChRs", "details": "cited from earlier work", "remark": "listed apart in the source"}, "[7]": {"system": "rats with behavioral evidence of tinnitus", "experiment": "operant conditioned-suppression behavioral test for tinnitus (suppression ratio, 20 kHz test series)", "format": "in vivo, Long Evans rats", "details": "0.5 mg/kg; 12 animals with tinnitus compared to 8 unexposed controls"}}, "note": "Entries after “also recorded” stand apart in the source; their conditions may differ.", "data": [{"smiles": "OCCCCC#Cc1cncc(OC[C@@H]2CCN2)c1", "note": "[sazetidine]", "values": [{"measurement": "sedation (decrease in total bar pressing)", "setting": "[1]; 1.0 mg/kg, FIG. 10", "value": "Mild sedation"}, {"measurement": "excess salivation, share of animals", "setting": "[1]; 1.0 mg/kg, visual evidence", "value": "about a third of the animals"}, {"measurement": "non-specific effects at the beginning of the test period", "setting": "[1]; 1 hr after treatment, FIG. 10", "value": "not present"}, {"measurement": "non-specific drug effects", "setting": "[1]; FIG. 10", "value": "evident at 1 mg/kg"}, {"measurement": "time of appearance of non-specific effects after treatment", "setting": "[1]; FIG. 10", "value": "10 to 15", "unit": "min"}, {"measurement": "time to prone resting position in home cage, all animals", "setting": "[1]; after drug treatment", "value": "≤ 10", "unit": "min"}, {"measurement": "sedation (decrease in session lever pressing)", "setting": "[1]; higher doses, FIG. 10", "value": "some general sedation"}, {"measurement": "duration of prone resting position", "setting": "[1]; rat, in vivo", "value": "about 10 min"}, {"measurement": "drug-dependent agitation, animals affected", "setting": "[1]; sound-exposed animal without evidence of tinnitus", "value": "One animal (out of 16)"}, {"measurement": "selectivity for α4β2 nAChRs compared to α3β4 nAChRs", "setting": "α3β4 nAChRs [2]", "value": "> 20,000 fold"}, {"measurement": "selectivity for α4β2 nAChRs relative to α7 nAChRs", "setting": "α7 nAChRs [3]", "value": "3,500 fold"}, {"measurement": "concentration that desensitizes α4β2 nAChRs", "setting": "α4β2 nAChRs", "value": "low nanomolar concentrations"}, {"measurement": "affinity for β2-containing nAChRs", "setting": "α4β2 nAChRs", "value": "very high affinity"}, {"measurement": "therapeutic effect on tinnitus", "setting": "[4]; 0.1 mg/kg SC, FIG. 9", "value": "potentially weak therapeutic effect"}, {"measurement": "tinnitus dose-response (tinnitus suppression ratio)", "setting": "[4]; 0.1 mg/kg to 1.0 mg/kg SC, FIG. 11", "value": "Therapeutic effect increased with dose; also recorded: effectiveness increases as the dose is increased"}, {"measurement": "suppression curve of tinnitus animals versus unexposed control animals", "setting": "[4]; 0.5 mg/kg SC, FIG. 8", "value": "no longer significantly different"}, {"measurement": "suppression curve of tinnitus animals versus unexposed control animals", "setting": "[4]; 1 mg/kg SC, first test, FIG. 2", "value": "no longer significantly different"}, {"measurement": "suppression curve of tinnitus animals versus unexposed control animals", "setting": "[4]; 1 mg/kg SC, second test (1st replication), FIG. 5", "value": "again no longer significantly different"}, {"measurement": "therapeutic effect on tinnitus", "setting": "[4]; 1 mg/kg SC, third test (2nd replication), one week after 1st replication, FIG. 6", "value": "No therapeutic effect was observed"}, {"measurement": "evidence of tinnitus", "setting": "[4]; 0.1 mg/kg", "value": "significantly reduced evidence of tinnitus"}, {"measurement": "evidence of tinnitus", "setting": "[4]; 0.5 mg/kg", "value": "effectively and significantly decreased evidence of tinnitus"}, {"measurement": "evidence of tinnitus", "setting": "[4]; 1 mg/kg", "value": "effectively and significantly decreased evidence of tinnitus"}, {"measurement": "dose level at which statistical effectiveness begins", "setting": "[4]; SC, FIG. 11", "value": "about 0.5 mg/kg"}, {"measurement": "suppression curve of tinnitus animals versus unexposed control animals", "setting": "[4]; five weeks following initial treatment, saline SC before test, FIG. 4", "value": "again statistically significantly different"}, {"measurement": "suppression curve of tinnitus animals versus unexposed control animals", "setting": "[4]; one week following initial treatment, washout, FIG. 3", "value": "remain similar to control"}, {"measurement": "tinnitus-related symptoms/lever pressing", "setting": "[4]; treatment 1 hour before testing", "value": "decreased tinnitus-related symptoms/lever pressing"}]}, {"smiles": "c1cnc2cc3c(cc2n1)C1CNCC3C1", "note": "[varenicline, 7,8,9,10-tetrahydro-6,10-methano-6H-pyrazino[2,3-h][3]-benzazepine]", "values": [{"measurement": "type of action at α3β4 nAChRs", "setting": "α3β4 nAChRs [5]", "value": "partial agonist actions"}, {"measurement": "selectivity for α4β2 nAChRs compared to α3β4 nAChRs", "setting": "α3β4 nAChRs [2]", "value": "4,000-5,000 fold"}, {"measurement": "selectivity for α4β2 nAChRs relative to α7 nAChRs", "setting": "α7 nAChRs [3]", "value": "4,000-5,000 fold"}, {"measurement": "concentration that desensitizes α4β2 nAChRs", "setting": "α4β2 nAChRs", "value": "low nanomolar concentrations"}, {"measurement": "affinity for β2-containing nAChRs", "setting": "α4β2 nAChRs", "value": "very high affinity"}, {"measurement": "type of action at α7 nAChRs", "setting": "α7 nAChRs [6]", "value": "full agonist activity"}, {"measurement": "reduction of evidence of tinnitus", "setting": "[7]", "value": 47, "unit": "%"}, {"measurement": "suppression curve of tinnitus animals versus unexposed control animals", "setting": "[4]; 0.5 mg/kg SC, FIG. 13", "value": "no longer significantly different"}, {"measurement": "linearity of tinnitus reduction across doses", "setting": "[4]; doses between 0.1 and 1.0 mg/kg", "value": "not-linear"}]}]}
